Assay results as given in paper PMC4496781, “Functional Roles of Aromatic Residues and Helices of Papiliocin in its Antimicrobial and Anti-inflammatory Activities” (Scientific Reports, 2015).
Read-outs that look alike come from different tables or passages of the source. Ends that are not written are not given here.

Experiments:
[1] = tested on: gram-negative bacteria (E. coli, S. typhimurium, P. aeruginosa); settings: for GM of the MIC values, gram-negative: 16 h; for Therapeutic Index (MHC/GM), gram-negative: ratio MHC (μM) over GM of MIC (μM)
Procedure: (§1) This property is assessed by the therapeutic index which can be defined as a ratio of the […] against human hRBCs to the MIC against bacterial cells.
(§2) MICs of the peptides against six standard bacteria and four multidrug-resistant bacteria were determined by a broth microdilution assay as described previously. […] Cytotoxicities against mammalian cells were measured against human RBCs, mouse macrophage-derived RAW264.7 cells, and fibroblast NIH-3T3 cells. The anti-inflammatory activities of the peptides were examined by inhibiting nitrite production in LPS-stimulated RAW264.7 cells.

[2] = tested on: gram-positive bacteria (B. subtilis, E. faecalis, S. aureus); settings: for GM of the MIC values, gram-positive: 16 h; for Therapeutic Index (MHC/GM), gram-positive: ratio MHC (μM) over GM of MIC (μM)
Procedure: as §1, §2

Bacillus subtilis = settings: 16 h
Procedure: as §2

Staphylococcus aureus = settings: 16 h
Procedure: as §2

Eenterococcus faecalis = settings: E, 16 h
Procedure: as §2

Salmonella typhimurium = settings: murium, 16 h
Procedure: as §2

Escherichia coli = settings: 16 h
Procedure: as §2

Pseudomonas aeruginosa = settings: 16 h
Procedure: as §2

MDRST 8009(R) = settings: broth microdilution, 16 h; unit not given
Procedure: (§3) We examined the antimicrobial activities of the peptides against multidrug-resistant bacterial strains, including four gram-negative species (S. typhimurium 8009(R), E. coli 1229(R), P. aeruginosa 2095(R), and A. baumannii 12035(R); Table 3).
as §2

MDREC 1229(R) = settings: 16 h
Procedure: as §3, §2

MDRPA 2095(R) = settings: 16 h
Procedure: as §3, §2

MDRAB 12035(R) = settings: broth microdilution, 16 h; unit not given
Procedure: as §3, §2

[3] = tested on: RAW264.7 macrophage cells; assay: Cytotoxicity, MTT; format: cell-based, mouse
Procedure: We examined the cytotoxicity against human erythrocytes. […] Next, we examined the cytotoxicity of the peptides against RAW264.7 macrophage cells. We assessed the effects of the peptides on cell growth by measuring mitochondrial reduction of MTT to a colored product in live cells. […] On the other hand, PapC produced high cytotoxicity against RAW264.7 cells, even at low concentrations. […] In case of PapN-2A, Pap-5A, and Pap-2A5A, the cell survival rates at a peptide concentration of 100 μM were approximately 90% or more. Thus, Trp^2 and Phe^5 are important for the cytotoxic activity of papiliocin toward RAW264.7 cells.
as §2

Row | Substance | GM of the MIC values, gram-negative [1] [µM] | Therapeutic Index (MHC/GM), gram-negative [1] | GM of the MIC values, gram-positive [2] [µM] | Therapeutic Index (MHC/GM), gram-positive [2] | MIC, Bacillus subtilis (Bacillus subtilis) [µM] | MIC, Staphylococcus aureus (Staphylococcus aureus) [µM] | MIC, Eenterococcus faecalis (Eenterococcus faecalis) [µM] | MIC, Salmonella typhimurium (Salmonella typhimurium) [µM] | MIC, Escherichia coli (Escherichia coli) [µM] | MIC, Pseudomonas aeruginosa (Pseudomonas aeruginosa) [µM] | MIC, MDRST 8009(R) (MDRST 8009(R)) [µM] | MIC, MDREC 1229(R) (MDREC 1229(R)) [µM] | MIC, MDRPA 2095(R) (MDRPA 2095(R)) [µM] | MIC, MDRAB 12035(R) (MDRAB 12035(R)) [µM] | Therapeutic Index (MHC/GM), gram-positive ([2]; listed as papiliocin) | cytotoxicity at the peptide's MIC [3]
1 | RAKIAKKIEKVGRNVRDGIIKA-NH2 [PapN-2A5A] | 4.67 | 42.9 | 213 | 0.939 | >128 | 128 | >128 | 4.00 | 2.00 | 8.00 | 8.00 | 4.00 | 16.0 | 32.0 | – | –
2 | RAKIAKKIEKVGRNVRDGIIKAGPAVAVVGQAATVVK-NH2 [Papiliocin-2A5A] | 0.667 | – | 213 | 0.939 | 128 | >128 | >128 | 1.00 | 0.500 | 0.500 | 4.00 | 2.00 | 1.00 | 0.500 | – | –
3 | RAKIFKKIEKVGRNVRDGIIKA-NH2 [PapN-2A] | 3.33 | 60.0 | 64.0 | 3.13 | 32.0 | 32.0 | 128 | 4.00 | 2.00 | 4.00 | 2.00 | 2.00 | 4.00 | 8.00 | – | –
4 | RAKIFKKIEKVGRNVRDGIIKAGPAVAVVGQAATVVK-NH2 [Papiliocin-2A] | 0.417 | – | 107 | 1.87 | 64.0 | 128 | 128 | 0.500 | 0.250 | 0.500 | 1.00 | 1.00 | 1.00 | 0.500 | – | –
5 | RFKIWKKIEKVGRNVRDGIIKA-NH2 [PapN-2F5W] | 1.67 | 120 | 29.3 | – | 8.00 | 16.0 | 64.0 | 2.00 | 1.00 | 2.00 | 2.00 | 2.00 | 2.00 | 4.00 | – | –
6 | RWKIAKKIEKVGRNVRDGIIKA-NH2 [PapN-5A] | 1.67 | 120 | 53.3 | 3.75 | 16.0 | 16.0 | 128 | 2.00 | 1.00 | 2.00 | 4.00 | 2.00 | 8.00 | 8.00 | – | –
7 | RWKIAKKIEKVGRNVRDGIIKAGPAVAVVGQAATVVK-NH2 [Papiliocin-5A] | 0.417 | – | 107 | 1.87 | 64.0 | 128 | 128 | 0.500 | 0.250 | 0.500 | 1.00 | 1.00 | 1.00 | 0.500 | – | –
8 | RWKIFKKIEKVGRNVRDGIIKA-NH2 [PapN] | 1.67 | 120 | 26.7 | – | 8.00 | 8.00 | 64.0 | 2.00 | 1.00 | 2.00 | 2.00 | 4.00 | 2.00 | 2.00 | – | –
9 | RWKIFKKIEKVGRNVRDGIIKAGPAVAVVGQAATVVK-NH2 [Papiliocin] | 0.417 | – | 37.3 | 5.36 | 16.0 | 32.0 | 64.0 | 0.500 | 0.250 | 0.500 | 0.500 | 0.500 | 1.00 | 0.500 | 12.0 | not toxic at their MICs
